This is an account of results in patent US9597347B2, “Compositions for treating obesity and insulin resistance disorders” (President and Fellows of Harvard College, priority 2003, dated 2017).

Molecules are shown by their SMILES. A value given as a limit tells only on which side of the number the result lay.

Experiment [1] concerns Wild-type N2 C. elegans worms. Description: Nile Red staining of fat accumulation in wild-type N2 C. elegans. The format is in vivo. As to conditions: 100 μM, L1 animals, 48 hours, control 2.5% v/v DMSO.
The subject of experiment [2] is phosphorylation of ACC. Description: Western blot of ACC phosphorylation in HEP3B human hepatoma cells. The class given is cell-based. As to conditions: resveratrol-treated cells with SIRT1 overexpressed or knocked down. Here is the method:
Similar results were also observed for HEP3B human hepatoma cells. In this case phosphorylation of ACC was measured in cells were SIRT1 was overexpressed (see FIG. 9, 4 right lanes) and in cells were SIRT1 was knocked down (FIG. 9, left lane). […] Tubulin served as a loading control.
(A western blot detects proteins with antibodies after separation by electrophoresis.)

In experiment [3] the test system is phosphorylation of ACC. Description: Western blot of ACC phosphorylation in 3T3-L1 adipocytes. As to conditions: harvested 6 or 10 days after induction of differentiation. The format is cell-based. Here is the method:
Phosphorylation of ACC, which reflects AMPK activity, was also observed in 3T3-L1 adipocytes treated with either ethanol or resveratrol. 3T3-L1 cells were incubated with either ethanol or resveratrol and then harvested either 6 or 10 days after they were induced to differentiate into adipocytes from the parent 3T3 fibroblast cell line. […] ACC was also phosphorylated when the cells were incubated in serum free media overnight before harvesting (lanes marked “SF”). The reason for the extra band in the SIRT1 blot at day 6 is unknown, but we hypothesize that it may be a modified form of SIRT1. Tubulin served as a loading control.

Experiment [4] deals with Wild-type N2 C. elegans worms. Description: Nile Red staining of fat accumulation in wild-type N2 C. elegans. The class given is in vivo. As to conditions: overnight. The method, then:
Wild-type N2 C. elegans worms were grown on OP50 bacteria and exposed overnight to vehicle (0.1% ethanol) alone or with 10, 50 or 100 μM of resveratrol (in ethanol). Fat accumulation was visualized with Nile Red staining, as described further below and in Ashrafi K, et al. Nature 421:268-27 (2003).
Synchronized starved L1 worms were grown in the presence of Nile Red. Strains were grown on NGM plates at 25° C. for approximately 48 hours until the young adult stage was reached. 20-30 young adult worms were then washed 2× with M9 buffer and transferred to new NGM/Nile red experimental plates that contained either OP50 or HTT5 E. coli carrying the L4440 RNAi control vector. For experiments comparing the effect of nicotinamide and resveratrol on fat mobilization, OP50 plates were coated with vehicle alone or Nicotinamide (in PBS), or vehicle alone and Resveratrol (in Ethanol or DMSO).
Resveratrol (Indofine #024964) was dissolved in Ethanol or DMSO to a 10 mM stock solution. Resveratrol was added to 60 mm NGM agar dishes containing either OP50 or RNAi expressing bacteria (HT115) to a final concentration of 10 μm, 50 μm, and 100 μM. Nile Red was also added to plates to a final concentration of 0.05 μg/ml. Nicotinamide (Supelco #47865-U) was diluted in PBS including Nile Red and added to […] dishes containing OP50 to a final concentration of 1 mM, 10 mM, or 100 mM.
Nile Red: Nile Red Powder (Sigma #N-3013) was dissolved in acetone at 500 μg/ml, diluted in 1× Phosphate Buffered Saline (PBS) including appropriate drug and applied to surface of Nematode Growth Media (NGM) plates previously seeded with OP50 or RNAi bacteria, at a final concentration of 0.05 μg/ml. Fat content was monitored and recorded by fluorescence microscopy.
Nile Red Staining was visualized by using a Nikon TE2000S microscope equipped with a CY3 filter (emission 535-685 nm). Images were captured using a SPOT RT monochrome digital camera attached to the Nikon Microscope with SPOT RT software v3.5. All Nile red images were acquired using identical settings and exposure times and then changed to red palette.

The subject of experiment [5] is NIH3T3 cells. In words: Adipocyte differentiation and fat content by Oil Red O staining, NIH3T3 cells. The class given is cell-based. Here is the method:
To obtain evidence that resveratrol affects fat metabolism in a physiologically relevant cell, we examined the effect of increasing concentrations of resveratrol on 3T3-L1 and NIH3T3 cell differentiation and fat content. 3T3-L1 or NIH3T3 cells were grown to confluence and allowed to pack in for 2 days at which point differentiation was initiated by addition of isobutylmethylxanthine, dexamethasone and insulin in the presence of vehicle (ethanol alone) or resveratrol at concentrations of 0, 12.5 and 25 μM. After 10 days of differentiation, fat content was assessed by Oil Red O staining, as described below. The results, which are shown in FIG. 12, indicate that concentrations of 25 μM or higher resveratrol decreased the quantity of cellular fat in 3T3-L1 and NIH3T3 cells. The results in NIH3T3 cells confirm the results obtained in C. elegans.
To further examine whether resveratrol activation of sir2 could promote fat mobilization or inhibition of differentiation in mammalian cells, we infected growing cells with wild-type SIRT1 or a deacetylase deficient form of SIRT1. […]
3T3-L1 and NIH3T3 cells were maintained in DMEM plus 10% calf serum. […] The staining of adipocytes with Oil Red-O and quantitation was performed as described previously (Ramirez-Zacarias J L, Castro-Munozledo F, Kuri-Harcuch W. Histochemistry. 1992 July; 97(6):493-7). […]

`Oc1ccc(/C=C/c2cc(O)cc(O)c2)cc1` [resveratrol, 3,5,4′-Trihydroxy-trans-stilbene]: the fat staining entry in experiment [1] was “Significant reduction of fat staining”. The “phosphorylation of ACC” value in experiment [2] is “Phosphorylation of ACC was not affected”; in experiment [3], “stimulated the phosphorylation of ACC at both day 6 and day 10”. In experiment [4] (10 μM or 50 μM), the fat accumulation result is recorded as “marked decrease in fat accumulation”. Besides, the “reduction of fat accumulation” value in experiment [4] (100 μM) came out at 90%. In addition, the “concentrations that decreased the quantity of cellular fat” value in experiment [5] (10 days of differentiation, 0, 12.5 and 25 μM tested, Oil Red O) was at least 25 µM. Besides, the “decrease in fat content” value in experiment [5] (cells expressing SIRT1 deacetylase deficient mutant (SIRT1ΔHY), 0, 12.5 or 25 μM, eight days) is “partially reduced”.
